Type in all cases: in vivo
Assay [1] deals with human scirrhous gastric cancer cell line (HSC-39). As to the kind of experiment: Combination use with 5-fluorouracil in subcutaneous transplanted (xenograft) models of HSC-39. The settings on record: HSC-39 xenograft, nude mice. As to the method: (§1) Human scirrhous gastric cancer cell line HSC-39 (purchased from Immuno-Biological Laboratories Co., Ltd.) was cultured in RPMI1640 (containing 10% FBS) in a 5% carbon dioxide gas incubator at 37° C. to about 80% confluence, and then the cells were collected with trypsin-EDTA. A 5×10^7 cells/mL suspension was prepared with a phosphate buffer, and each 0.1 mL of the resulting cell suspension was subcutaneously transplanted to nude mice at the side of their bodies. Thirteen days after the transplantation, 4-(3-chloro-4-(cyclopropylaminocarbonyl)aminophenoxy)-7-methoxy-6-quinolinecarboxamide (3, 10 or 30 mg/kg, once a day for four weeks, oral) and 5-fluorouracil (Kyowa Hakko) (50 mg/kg, every four days for three times, intravenous) were administered alone or in combination. The major and minor axes of tumors were measured with Digimatic caliper (Mitsutoyo Corporation), and tumor volumes and relative tumor volumes were calculated according to the following formulae: […]

For assay [2] the test system is unchanged. Nature of the assay: Combination use with paclitaxel in subcutaneous transplanted (xenograft) models of HSC-39. The settings on record: HSC-39 xenograft, nude mice. As to the method: as §1, with “Eleven” for “Thirteen”, “paclitaxel (Calbiochem) (14” for “5-fluorouracil (Kyowa Hakko) (50”, “once a day” for “every four days”, “five days,” for “three times,”

The test system is the same in assay [3]. As to the kind of experiment: Combination use with irinotecan hydrochloride in subcutaneous transplanted (xenograft) models of HSC-39. The settings on record: once a day for four weeks, oral, HSC-39 xenograft, nude mice. As to the method: Human scirrhous gastric cancer cell line HSC-39 (purchased from Immuno-Biological Laboratories Co,. Ltd.) was cultured in RPMI1640 (containing 10% FBS) in a 5% carbon dioxide gas incubator at 37° C. to about 80% confluence, and then the cells were collected with trypsin-EDTA. A 5×10^7 cells/mL suspension was prepared with a phosphate buffer, and each 0.1 mL of the resulting cell suspension was subcutaneously transplanted to nude mice at the side of their bodies.
Twelve days after the transplantation, 4-(3-chloro-4-(cyclopropylaminocarbonyl)aminophenoxy)-7-methoxy-6-quinolinecarboxamide (3, 10 or 30 mg/kg, once a day for four weeks, oral) and irinotecan hydrochloride (Daiichi Seiyaku) (100 mg/kg, every four days for three times, intravenous) were administered alone or in combination. The major and minor axes of tumors were measured with Digimatic caliper (Mitsutoyo Corporation), and tumor volumes and relative tumor volumes were calculated according to the following formulae: Tumor Volume (TV)=Major axis of tumor (mm)×(Minor axis of tumor)^2 (mm^2)/2 Relative Tumor Volume (RTV)=Tumor volume on measurement day/Tumor volume on the first administration day.

The mark [4] stands for this setting: Compound A 3 mg/kg alone, once a day for four weeks, oral.
The mark [5] stands for this setting: Compound A 10 mg/kg alone, once a day for four weeks, oral.
The mark [6] stands for this setting: Compound A 30 mg/kg alone, once a day for four weeks, oral.

Results on three compounds are retold here after US8962655B2, “Composition for treatment of undifferentiated gastric cancer” (Eisai R&D Management Co., Ltd., priority 2007, dated 2015).

On to `O=c1[nH]cc(F)c(=O)[nH]1` [5-Fluorouracil, 5-fluorouracil, reference compound], for which, in assay [1] (5-fluorouracil 50 mg/kg alone, every four days for three times, intravenous), the “Relative tumor volume on Day 29 Average ± standard deviation” value was 5.16 ± 1.37.

Take `COc1cc2nccc(Oc3ccc(NC(=O)NC4CC4)c(Cl)c3)c2cc1C(N)=O` [Compound A, 4-(3-chloro-4-(cyclopropylaminocarbonyl)aminophenoxy)-7-methoxy-6-quinolinecarboxamide]: the “Relative tumor volume on Day 29 Average ± standard deviation” value turned out to be 3.79 ± 1.43 in assay [2] (setting [4]); 3.27 ± 1.26 in assay [2] (setting [5]); 1.69 ± 0.72 in assay [2] (setting [6]); 4.29 ± 1.51 in assay [3] (Compound A 3 mg/kg alone); 2.93 ± 1.55 in assay [3] (Compound A 10 mg/kg alone); 1.76 ± 0.92 in assay [3] (Compound A 30 mg/kg alone). In addition, the “Relative tumor volume on Day 29 Average ± standard deviation” value was found to be 4.16 ± 1.28 in assay [1] (setting [4]), 3.73 ± 1.21 in assay [1] (setting [5]) and 2.72 ± 1.33 in assay [1] (setting [6]).

With `CC(=O)O[C@H]1C(=O)[C@@]2(C)[C@H]([C@H](OC(=O)c3ccccc3)[C@]3(O)C[C@H](OC(=O)[C@H](O)[C@@H](NC(=O)c4ccccc4)c4ccccc4)C(C)=C1C3(C)C)[C@]1(OC(C)=O)CO[C@@H]1C[C@@H]2O` [Paclitaxel, paclitaxel, reference compound], in assay [2] (paclitaxel 14 mg/kg alone, once a day for five days, intravenous), the “Relative tumor volume on Day 29 Average ± standard deviation” value came to 4.26 ± 2.06.
